According to patent publication US10363282B2, “Analogs of C5a and methods of using same” (priority 2010, dated 2019):
Read-outs that look alike come from different tables or passages of the source. Where no end group is shown, it is not given here. [ ]: non-standard residue; d: D form. NMeL = CN[C@@H](CC(C)C)C(=O)O

How the values were obtained:
[1] = system: E. coli strain DH5α; assay: E. coli growth (OD600) with peptide; type: cell-based; settings: for effect on log phase growth (OD600): added at OD600 0.2, 500 μg/m, LB or TSB
Method: E. coli strain DH5α was grown overnight in mls of Lennox Broth (LB). This culture was diluted to an optical density at […] (OD600) of 0.06. The diluted E.coli was dispensed in 1.5 ml aliquots into separate tubes and 1.5 ml of EP67 (YSFKDMP(MeL)aR (SEQ ID NO: 4)), EP54 (YSFKPMPLaR (SEQ ID NO: 3)), scrambled-EP67 (s-EP67) or scrambled-EP54 in LB was added to obtain a final concentration of 500 μg/ml with the E. coli at an OD600 of 0.03. A culture in LB was also prepared. The cultures were incubated at 37° C. with shaking and the OD600 readings recorded hourly. In order to determine whether the growth media altered the effectiveness of EP67, LB was replaced with an alternative growth media, Tryptic Soy Broth (TSB).
To test the efficacy of EP67 on bacteria growing in log phase, overnight cultures of DH5α were grown in either LB or TSB. The cultures were diluted to an OD600 of 0.03 and incubated at 37° C. with shaking until they reached an OD600 of 0.2 at which time either EP67 or s-EP67, in the appropriate media, were added to a final concentration of 500 μg/m. DH5α control cultures (absence of additives) were also prepared. The tubes were further shaken at 37° C. and OD600 readings were taken hourly.

[2] = system: neutrophils; assay: In vivo neutrophil chemotaxis: histopathology and myeloperoxidase assay; parameters: species or system CD1 mice; settings: for histopathologic analysis of skin tissue: 250 μg s.c., no bacteria
Method: Neutrophil chemotaxis and myeloperoxidase assay. Neutrophil recruitment at the site of injection by EP67 or sEP67 was examined using an in vivo chemotaxis assay as described previously (van Sorge N M, et al., PloS One 2008; 3:e2964). Briefly, 250 μg EP67 or sEP67 were injected subcutaneously into the right flank of CD1 mice. The injection was repeated after 24 h. Mice were euthanized 4 h after the second injection and the site of injection excised for histopathoglogic analysis or determination of myeloperoxidase (MPO) activity as described previously (van Sorge N M, et al., supra). The assay was carried out two times and the samples analyzed in duplicate.
Neutrophil influx is essential for the protective action of EP67. […] Neutrophil recruitment to the site of EP67 injection was further analyzed using an in vivo neutrophil recruitment assay as described previously (van Sorge N M, et al., supra; and Banerjee A, et al., Cell Microbiol; 12:1576-1588). Neutrophil migration was assessed in skin homogenates following injection of EP67 or sEP67 by determining the level of neutrophil enzyme myeloperoxidase (MPO), which serves as an effective indication of neutrophil infiltration (Banerjee A, et al., supra; and Bradley P P, et al., J Invest Dermatol 1982; 78:206-209). This method compares well with other in vivo assays of neutrophil chemotaxis (van Sorge N M, et al., supra).

[3] = system: MRSA; type: in vivo, C57B1/6 mice; settings: for lesion size in CD88 −/− background vs EP67-treated CD88 +/+ background: mouse, in vivo
[4] = system: influenza A/A/PR/8; assay: Influenza-induced weight loss after one EP67 treatment; type: in vivo, mice
[5] = system: influenza A/PR/8; type: in vivo, mice; settings: uninfected animals treated with EP67, one day later
[6] = system: GBS; assay: Group B Streptococcus (GBS) meningitis model; type: in vivo, CD1 mice; settings: 250 ug i.p. at day −1, 0, 1 and 2; brain and blood cfu 96 hours post-injection
Method: 8-week old female CD1 mice were treated with 250 ug of EP67 or s-EP67 at day −1, 0, 1 and 2 via i.p. injection. GBS was injected via i.p. at 1×10^9 cfu/mouse. Brains and blood were harvested from each mouse 96 hours post-injection. The tissue was homogenized, diluted and plated to determine the cfu/g bacteria.

[7] = system: bronchoalveolar lavage (BAL) cells; assay: BAL cell FACS analysis after EP67 insufflation; type: in vivo, mice
Method: In short, EP67 (3 mg/kg) was delivered directly to the lungs of mice through insufflation (IN). […] Lungs were lavaged with PBS to isolate the bronchoalveolar lavage (BAL) cells for staining and FACS analysis.

[8] = system: S. aureus (Newman strain); assay: S. aureus in vitro EP67 killing curves; type: cell-based; settings: dilution series, LB; higher concentrations
Method: 150 μl of LB growth medium plus 50 μl of EP67 or s-EP67 were added to individual culture wells resulting in a dilution series of 6 wells per EP67 or s-EP67. A “no EP67” well (control) was included at the end of each series. S. aureus (Newman strain) was allowed to grow to an OD600 of 0.4 and each well of the dilution series was inoculated with 5μl of the culture. Two wells with no bacterial inoculums were included to serve as controls. Plates were incubated at 37° C. with agitation and the OD600 of each well was measured hourly using a plate reader.

[9] = system: S. aureus (USA300 LAC strain) biofilm; assay: S. aureus catheter biofilm model; settings: Day 3, relative to sEP67 and PBS vehicle
Method: A S. aureus (USA300 LAC strain) biofilm was established on a hollow catheter (1 cm in length) inserted subcutaneously into C57BL/6 mice by introducing 1000 CFUs of S. aureus into the catheter lumen. At the time of infection, one dose of EP67 (200 μg/ml dissolved in PBS) was introduced. At both 24 and 48 h following infection, a series of four injections of EP67 were made; two into each open end of the catheter (20 μl each) and two along the top and bottom at points perpendicular to the middle of the catheter (50 μl each). Samples of the biofilm and surrounding tissue were obtained at Day 3 and assessed for the presence of viable bacteria by standard culture methods.

[10] = system: bronchoalveolar lavage (BAL) cells; assay: BAL cell response of aged mice to EP67 insufflation; type: in vivo
[11] = system: influenza; assay: ELISA for anti-influenza antibodies in serum; type: in vivo, mice; settings: each EP67 treatment group
[12] = EP67 3 mg/kg insufflation, one day later

## (MeL)RMYKPaFDS ([NMeL]RMYKP[dA]FDS) [sEP67, reference compound]
[1]
  effect on log phase growth (OD600): little or no effect on growth
[2]
  histopathologic analysis of skin tissue: normal pathology
[3]
  lesion size in CD88 −/− background vs EP67-treated CD88 +/+ background: significantly larger

## YSFKDMP(MeL)aR (YSFKDMP[NMeL][dA]R; listed as Homo sapiens) [EP67, C-terminal analog of human C5a]
[4]; treated on day 2 after infection
  protection from influenza-induced morbidity: not associated with any protection
[4]; treated on day 3 after infection
  protection from influenza-induced morbidity: not associated with any protection
[4]; treated one day after infection
  influenza-induced weight loss: significant protection from influenza-induced weight loss
[4]; treated the day before infection, vs non-treated animals
  influenza-induced weight loss: lost significantly less weight
[4]; treated the day of infection, vs non-treated animals
  influenza-induced weight loss: lost significantly less weight
[5]
  influx of innate effectors (exMacs, neutrophils) in BAL: displayed this influx of innate effectors
[1]; 500 μg/ml, start OD600 0.03, LB or TSB
  effect on bacterial growth (OD600): direct bacteriostatic/bacteriocidal effects
[1]
  effect on log phase growth (OD600): significantly reduce and/or stop log phase growth
[6]
  protection against GBS infection in the central nervous system: protects against GBS infections in the central nervous system
[7]; [12]
  CD11b+CD11c− cells (GR-1+ neutrophils) in alveolar space: a large population of CD11b^+CD11c^− cells appeared in the alveolar space
  exudate macrophages (exMac) in BAL cells: appearance of cells bearing the CD11b^+CD11c^+ phenotype of exudate macrophages (exMac)
[7]; mouse, in vivo
  dose dependence of EP67-induced changes in BAL populations: strict dose-response
[7]; seven days post EP67 administration
  time course of the EP67 response in BAL cells: neutrophils: the neutrophils were largely lost
[8]
  effect on bacterial growth (OD600): dose dependent inhibitory effect
[9]
  bacterial burdens in surrounding tissue: significant decrease in bacterial burdens
  bacterial burdens within the biofilm: significant decrease in bacterial burdens
[2]; 250 μg s.c. twice, 4 h after second injection, compared to sEP67
  myeloperoxidase (MPO) levels in skin homogenates (accumulating neutrophils): significantly higher
[2]
  histopathologic analysis of skin tissue: massive influx of inflammatory cells, including neutrophils
[10]
  exMacs and neutrophils in alveolar space: a large population of exMAcs and neutrophils into the alveolar space
[11]
  anti-influenza Abs in serum: high concentration of anti-influenza Abs
[3]; CD88 −/− animals, EP67 vs sEP67
  lesion size: no difference in lesion size
[3]
  lesion size in CD88 −/− background vs EP67-treated CD88 +/+ background: significantly larger
[3]; wild-type CD88 +/+ animals, EP67 compared to sEP67
  lesion size: significantly smaller lesions
